Values quoted from earlier work as cited in patent US20100227830A1, “USE OF ESCIN” (MARINOMED BIOTECHNOLOGIE GMBH, priority 2006, published 2010).

System: nuclear factor-KB (NF-κB)
Conditions: after traumatic brain injury in rats

## β-escin
  NF-κB expression level in tissue: significant reduction of NF-κB expression level
